Literature values in patent publication US10086032B2, “Method for preparing a Camellia nitidissima Chi lipid-lowering and hypoglycemic agent” (Shenzhen Violin Technology Co., Ltd., priority 2014, dated 2018).

Tested on: model rat with hyperlipidemia
Details: high dose group; lovastatin 0.01 g/kg; 43 days intragastric gavage

In the case of `CC[C@H](C)C(=O)O[C@H]1C[C@@H](C)C=C2C=C[C@H](C)[C@H](CC[C@@H]3C[C@@H](O)CC(=O)O3)[C@H]21` [lovastatin], the “HDL-C content of serum” value is listed as “enhance HDL-C content of serum in model rat with hyperlipidemia”.
